Reference: patent US10150757B2, “Quinazolinone derivatives as PARP inhibitors” (Janssen Pharmaceutica NV, priority 2004, dated 2018)

Molecular target: PARP-1 enzyme (Homo sapiens, UniProt P09874)
Test: In vitro filtration assay for PARP-1 inhibitory activity
Assay type: biochemical
Conditions: [32P]-NAD, histones, nicked DNA; read-out: in vitro filter assay PARP-1 pIC50 (converted)
Protocol: In Vitro Filtration Assay for PARP-1 Inhibitory Activity
Compounds of the present invention were tested in an in vitro filtration assay assessing PARP-1 activity (triggered in the presence of nicked DNA) by means of its histone poly (ADP-ribosyl)ation activity using [^32P]-NAD as ADP-ribosyl donor. The radioactive ribosylated histones were precipitated by trichloroacetic acid (TCA) in 96-well filterplates and the incorporated [^32P] measured using a scintillation counter
A mixture of histones (stock solution: 5 mg/ml in H2O), NAD^+ (stock solution: 100 mM in H2O), and [^32P]-NAD^+ in incubation buffer (50 mM Tris/HCl, pH 8; 0.2 mM DTT; 4 mM MgCl2) was made. A mixture of the PARP-1 enzyme (5-10 μg/ml) and nicked DNA was also made. The nicked DNA was prepared as described in the in vitro SPA for PARP-1 inhibitory activity. Seventy-five μl of the PARP-1 enzyme/DNA mixture together with 1 μl of compound in DMSO and 25 μl of histones-NAD^+/[^32P]-NAD^+ mixture was added per well of a 96-well filterplate (0.45 μm, supplier Millipore). The final concentrations in the incubation mixture were 2 μg/ml for the histones, 0.1 mM for the NAD^+, […] (0.5 μC) for the [^32P]-NAD^+ and 2 μg/ml for the nicked DNA. Plates were incubated for 15 min. at room temperature and the reaction was terminated by the addition of 10 μl ice cold 100% TCA followed by the addition of 10 μl ice-cold BSA solution (1% in H2O). The protein fraction was allowed to precipitate for 10 min. at 4° C. and plates were vacuum filtered. The plates were subsequently washed with, for each well, 1 ml of 10% ice cold TCA, 1 ml of 5% ice cold TCA and 1 ml of 5% TCA at room temperature. Finally 100 μl of scintillation solution (Microscint 40, Packard) was added to each well and the plates were transferred to a TopCountNXT™ (supplier: Packard) for scintillation counting and values were expressed as counts per minute (cpm). For each experiment, controls (containing PARP-1 enzyme and DMSO without compound), a blank incubation (containing DMSO but no PARP-1 enzyme or compound) and samples (containing PARP-1 enzyme and compound dissolved in DMSO) were run in parallel. All compounds tested were dissolved and eventually further diluted in DMSO. In first instance, compounds were tested at a concentration of 10^−5M. […] In each test, the blank value was subtracted from both the control and the sample values. The control sample represented maximal PARP-1 enzyme activity. For each sample, the amount of cpm was expressed as a percentage of the mean cpm value of the controls. […] Herein the effects of test compounds are expressed as pIC50 (the negative log value of the IC50-value).

Sequence of PARP-1 enzyme (P09874 whole entry): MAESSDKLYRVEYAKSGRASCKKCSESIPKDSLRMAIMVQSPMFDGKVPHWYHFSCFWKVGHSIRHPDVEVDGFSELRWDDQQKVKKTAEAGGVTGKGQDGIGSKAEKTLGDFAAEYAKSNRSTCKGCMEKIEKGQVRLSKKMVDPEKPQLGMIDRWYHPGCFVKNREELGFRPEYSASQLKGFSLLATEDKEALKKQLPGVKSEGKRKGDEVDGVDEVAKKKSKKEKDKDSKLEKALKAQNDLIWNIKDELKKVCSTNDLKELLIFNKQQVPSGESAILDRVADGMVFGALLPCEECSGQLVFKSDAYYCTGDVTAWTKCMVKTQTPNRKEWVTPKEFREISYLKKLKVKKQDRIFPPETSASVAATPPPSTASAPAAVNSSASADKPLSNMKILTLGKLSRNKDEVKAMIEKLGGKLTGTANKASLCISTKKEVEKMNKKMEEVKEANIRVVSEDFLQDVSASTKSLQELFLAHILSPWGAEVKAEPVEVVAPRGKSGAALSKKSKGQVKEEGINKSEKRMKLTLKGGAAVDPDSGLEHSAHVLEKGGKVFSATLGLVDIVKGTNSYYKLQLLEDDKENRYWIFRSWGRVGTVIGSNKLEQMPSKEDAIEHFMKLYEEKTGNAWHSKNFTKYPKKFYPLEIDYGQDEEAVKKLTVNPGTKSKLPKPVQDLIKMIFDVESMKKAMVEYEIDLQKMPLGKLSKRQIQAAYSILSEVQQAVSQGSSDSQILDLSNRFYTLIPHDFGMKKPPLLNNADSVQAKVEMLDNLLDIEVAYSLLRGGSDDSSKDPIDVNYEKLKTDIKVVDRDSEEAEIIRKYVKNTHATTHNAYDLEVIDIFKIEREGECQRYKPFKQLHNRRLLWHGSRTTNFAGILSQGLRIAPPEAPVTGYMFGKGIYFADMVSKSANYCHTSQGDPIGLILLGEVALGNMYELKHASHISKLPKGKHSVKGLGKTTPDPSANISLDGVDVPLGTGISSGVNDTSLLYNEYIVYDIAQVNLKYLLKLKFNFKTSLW

Row | Compound | IC50 [nM]
1 | O=c1[nH]c(NCCCN2CCC(c3c[nH]c4ccccc34)CC2)nc2ccccc12 [Compound 20] | 5300
2 | O=C(NC1CCN(CCCNc2nc3ccccc3c(=O)[nH]2)CC1)c1ccccc1 [Compound 23] | 2540
3 | CO[C@H]1CN(CCCNc2nc3ccccc3c(=O)[nH]2)CC[C@H]1NC(=O)c1cc(Cl)cc2c1OC(C)(C)C2 [Compound 18] | 4520
4 | O=c1[nH]c(NCCCN2CCC(O)(c3ccc(Cl)cc3)CC2)nc2ccccc12 [Compound 2] | 973
5 | O=c1[nH]c(NCCCN2CCN(c3n[nH]c4ccccc34)CC2)nc2ccccc12 [Compound 22] | 467
6 | Nc1c(Cl)cc(C(=O)OCC2CCN(CCNc3nc4ccccc4c(=O)[nH]3)CC2)c2c1OCCO2 [Compound 7] | 3440
7 | O=c1[nH]c(NCCCN2CCN(c3nsc4ccccc34)CC2)nc2ccccc12 [Compound 24] | 4950
8 | CC1(C)Cc2c(N)c(Cl)cc(C(=O)NC3CCN(CCCNc4nc(O)c5ccccc5n4)CC3)c2O1 [Compound 4] | 3650
9 | CO[C@@H]1CN(CCCNc2nc(O)c3ccccc3n2)CC[C@@H]1NC(=O)c1cc(Cl)c(N)c2c1OCCC2 [Compound 6] | 2740
10 | CC1(C)Cc2c(N)c(Cl)cc(C(=O)NC3CCN(CCCCNc4nc(O)c5ccccc5n4)CC3)c2O1 [Compound 5] | 2640
11 | CO[C@@H]1CN(CCCNc2nc(O)c3ccccc3n2)CCN1NC(=O)c1cc(Cl)c(N)c2c1OC(C)(C)C2 [Compound 8] | 2110
12 | O=c1[nH]c(NCCN2CCC(c3n[nH]c4cc(F)ccc34)CC2)nc2ccccc12 [Compound 21] | 520

Next, values leading:

Row | IC50 [nM] | Compound
13 | 8950 | O=c1[nH]c(NCCCN2CCC(Nc3cccc4ccccc34)CC2)nc2ccccc12 [Compound 42]
14 | 424 | O=c1[nH]c(NCCCN2CCN(c3n[nH]c4cc(F)ccc34)CC2)nc2ccccc12 [Compound 27]
15 | 3050 | Nc1c(Cl)cc(C(=O)NC2CCN(CCCNc3nc(O)c4ccccc4n3)CC2)c2c1CCO2 [Compound 45]
16 | 2320 | O=c1[nH]c(NCCCN2CCC(c3n[nH]c4cc(F)ccc34)CC2)nc2ccccc12 [Compound 25]
17 | 1870 | O=C(c1ccc(F)cc1)C1CCN(CCNc2nc3ccccc3c(=O)[nH]2)CC1 [Compound 46]
18 | 1630 | O=c1[nH]c(NCCCN2CCC(c3noc4cc(F)ccc34)CC2)nc2ccccc12 [Compound 26]
19 | 4650 | O=c1[nH]c(NCCCN2CCC(n3c(=O)[nH]c4ccccc43)CC2)nc2ccccc12 [Compound 29]
20 | 546 | O=c1[nH]c(NCCN2CCN(c3n[nH]c4cc(F)ccc34)CC2)nc2ccccc12 [Compound 41]
21 | 2820 | CCCCn1cc(C2CCN(CCCNc3nc4ccccc4c(=O)[nH]3)CC2)c2ccccc21 [Compound 28]
22 | 2240 | O=c1nc(NCCCN2CCC(Nc3nccc4ccccc34)CC2)[nH]c2ccccc12 [Compound 40]

System: not given
Test: not given
Conditions: not given

Row | Compound | melting point [°C]
23 | O=c1[nH]c(NCCN2CCN(c3n[nH]c4ccccc34)CC2)nc2ccc(Cl)cc12 [Compound 1] | 186
24 | O=c1[nH]c(NCCCN2CCC(O)(c3ccc(Cl)cc3)CC2)nc2ccccc12 [Compound 2] | 178.4
